Here are results for twelve molecules from US20260151375A1, “CDK2 INHIBITORS AND METHODS OF USING THE SAME” (Cedilla Therapeutics, Inc., priority 2022, published 2026).

pIC50: −log10 of the molar value. Counter-ions that a name gives are not always drawn.

In assay [1] the target is T1, CDK2/Cyclin E1 (Homo sapiens, UniProt P24941).
T1 construct: purchased 14-475
In words: Caliper Assay (LabChip EZ Reader mobility shift assay), inhibition of CDK2/Cyclin E1 activity. The class given is biochemical. As to conditions: 2.5 nM CDK2/Cyclin E1(14-475), 100 μM ATP, 30 min preincubation; read-out: Caliper Assay (CDK2/CCNE1): IC50. The essentials:
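Compounds were preincubated 30 min with CDK2/Cyclin E1(14-475), then run for 100 min with 2.5 nM enzyme, 100 μM ATP and 1.5 μM 5-FAM-QSPKKG peptide in HEPES pH 7.5 (final). Reactions were EDTA-stopped and substrate-to-product conversion read by mobility shift. IC50 came from a four-parameter fit.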

Another assay relates to Kuramochi cells. In words: IncuCyte Kuramochi Assay (cell proliferation). The assay is classed as cell-based. As to conditions: 72 h, Kuramochi cells labeled with mApple-H2B, cell count, read-out: IncuCyte - Kuramochi RB-WT: IC50. In outline:
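Cells imaged at 0 and 72 h after compound treatment (10 points, ½ log dilution, 20 μM top), with fluorescent nuclei counted. Fold change in count was normalized to DMSO wells and fitted to dose-response curves to give GI50.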

Assay [2] deals with T1, CDK2/Cyclin E1. Kind of assay: ADPGLO (CDK2/E1-37 C), ADP-Glo Luminescent Kinase Assay. The class given is biochemical. As to conditions: 0.18 nM CDK2/Cyclin E1, 100 μM ATP, Histone H1, 37° C. In outline:
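Human CDK2/Cyclin E1 preincubated with inhibitor 60 min at 37 °C, then reacted 90 min at 37 °C with final 0.18 nM enzyme, 100 μM ATP, 1.5 μM Histone H1 in HEPES pH 7.5 buffer. ADP formed read by ADP-Glo luminescence; IC50 from four-parameter fit.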

Assay [3] has as its system mouse models of polycystic kidney disease. As to conditions: Bukanov et al., Nature 2006; cited from earlier work.

Turning to `CC(c1nc(C2CN(C(=O)c3cnn(Cc4ccc(C#N)cc4)c3)CC23CN(C(=O)[C@H]2CC2(C)C)C3)no1)n1ccc(C2CCCC2)n1` (stereo partly drawn) [I-133, 4-((4-(8-(5-(1-(3-cyclopentyl-1H-pyrazol-1-yl)ethyl)-1,2,4-oxadiazol-3-yl)-2-((S)-2,2-dimethylcyclopropane-1-carbonyl)-2,6-diazaspiro[3.4]octane-6-carbonyl)-1H-pyrazol-1-yl)methyl)benzonitrile], the pIC50 on CDK2/Cyclin E1 [1] is at least 8.00; in the assay with Kuramochi cells it was 5.30 to 6.30; at CDK2/Cyclin E1 [2], at least 6.30.

As for `CC(c1nc(C2CN(C(=O)c3cnc(O)cn3)CC23CN(C(=O)[C@H]2CC2(F)F)C3)no1)n1ccc(C2CCCC2)n1` (stereo partly drawn) [I-134, (8-(5-(1-(3-cyclopentyl-1H-pyrazol-1-yl)ethyl)-1,2,4-oxadiazol-3-yl)-2-((R)-2,2-difluorocyclopropane-1-carbonyl)-2,6-diazaspiro[3.4]octan-6-yl)(5-hydroxypyrazin-2-yl)methanone], the pIC50 at CDK2/Cyclin E1 [1] is 6.00 to 7.00; with Kuramochi cells, below 5.00; against CDK2/Cyclin E1 [2], 5.30 to 6.30.

For the molecule `O=C(c1nccnc1O)N1CC(c2nnc(C(F)(F)c3ccc(Cl)c(Cl)c3)o2)C2(CN(CC3CCCO3)C2)C1` (stereo not shown) [I-135], the pIC50 is below 4.00 on CDK2/Cyclin E1 [1], below 5.00 with Kuramochi cells and below 4.00 against CDK2/Cyclin E1 [2].

As for `O=C(c1[nH]ncc1C(F)(F)F)N1CC(c2nnc(C(F)(F)c3ccc(Cl)c(Cl)c3)o2)C2(CN(CC3CCCO3)C2)C1` (stereo not shown) [I-136], the pIC50 on CDK2/Cyclin E1 [1] was below 4.00; with Kuramochi cells, below 5.00; on CDK2/Cyclin E1 [2], below 4.00.

As to `COc1cn[nH]c1C(=O)N1CC(c2nnc(C(F)(F)c3ccc(Cl)c(Cl)c3)o2)C2(C1)CN(C(=O)[C@H]1CC1(F)F)C2` (stereo partly drawn) [I-137, (8-(5-((3,4-dichlorophenyl)difluoromethyl)-1,3,4-oxadiazol-2-yl)-2-((R)-2,2-difluorocyclopropane-1-carbonyl)-2,6-diazaspiro[3.4]octan-6-yl)(4-methoxy-1H-pyrazol-5-yl)methanone], the values for the pIC50 on CDK2/Cyclin E1 [1], in the assay on Kuramochi cells and against CDK2/Cyclin E1 [2] were 5.00 to 6.00, below 5.00 and below 5.00, respectively.

In the case of `COc1cc(C(=O)N2CC(c3nnc(C(F)(F)c4ccc(Cl)c(Cl)c4)o3)C3(C2)CN(C(=O)[C@H]2CC2(F)F)C3)[nH]n1` (stereo partly shown) [I-138], the results for the pIC50 at CDK2/Cyclin E1 [1], in the assay on Kuramochi cells and against CDK2/Cyclin E1 [2] were below 5.00, below 5.00 and below 4.00, respectively.

In the case of `O=C(c1ccn[nH]1)N1CC(c2nnc(C(F)(F)c3ccc(Cl)c(Cl)c3)o2)C2(CN(CC3CCCO3)C2)C1` (stereo not shown) [I-139, (8-(5-((3,4-dichlorophenyl)difluoromethyl)-1,3,4-oxadiazol-2-yl)-2-((tetrahydrofuran-2-yl)methyl)-2,6-diazaspiro[3.4]octan-6-yl)(1H-pyrazol-5-yl)methanone formate], the pIC50 is below 4.00 on CDK2/Cyclin E1 [1], below 5.00 in the assay with Kuramochi cells and below 4.00 against CDK2/Cyclin E1 [2].

As for `O=C(c1cnc(O)cn1)N1CC(c2nnc(C(F)(F)c3ccc(Cl)c(Cl)c3)o2)C2(CN(CC3CCCO3)C2)C1` (stereo not shown) [I-140], the pIC50 on CDK2/Cyclin E1 [1], with Kuramochi cells and at CDK2/Cyclin E1 [2] was below 5.00 throughout.

As to `O=C(c1cn[nH]c1C(F)(F)F)N1CC(c2nnc(C(F)(F)c3ccc(Cl)c(Cl)c3)o2)C2(CN(CC3CCCO3)C2)C1` (stereo not shown) [I-141], the pIC50 is below 4.00 at CDK2/Cyclin E1 [1], below 5.00 in the assay with Kuramochi cells and below 5.00 against CDK2/Cyclin E1 [2].

In the case of `O=C(c1cc(C(F)(F)F)n[nH]1)N1CC(c2nnc(C(F)(F)c3ccc(Cl)c(Cl)c3)o2)C2(CN(CC3CCCO3)C2)C1` (stereo not shown) [I-142], the pIC50 on CDK2/Cyclin E1 [1] was below 4.00; with Kuramochi cells, below 5.00; at CDK2/Cyclin E1 [2] it was below 5.00.

Regarding `O=C(c1cn[nH]c1)N1CC(c2nnc(C(F)(F)c3ccc(Cl)c(Cl)c3)o2)C2(CN(CC3CCCO3)C2)C1` (stereo not shown) [I-143], the pIC50 on CDK2/Cyclin E1 [1] was below 4.00; with Kuramochi cells, below 5.00; at CDK2/Cyclin E1 [2] it was below 5.00.

Regarding `CC[C@H](CO)Nc1nc(NCc2ccccc2)c2ncn(C(C)C)c2n1` [roscovitine], the “arrest of cystic kidney disease” value in assay [3] is “effective arrest of cystic kidney disease”.
